In publication PMC12682947, “Identification of New KCNT1‐Epilepsy Drugs by In Silico, Cell, and Drosophila Modeling” (Annals of Neurology, 2025):
Counter-ions that a name gives are not always drawn. Like-named read-outs stand apart in the source and are kept apart here.

Target: T1, WT/Y796H KCNT1 channels (Homo sapiens, UniProt Q5JUK3, Y796H)
T1 construct: T2A self-cleaving motif ([…]) following the first subunit (C); expressed in transfected cells; host or cells: CHO cells
T1 sequence (Q5JUK3 1-1230): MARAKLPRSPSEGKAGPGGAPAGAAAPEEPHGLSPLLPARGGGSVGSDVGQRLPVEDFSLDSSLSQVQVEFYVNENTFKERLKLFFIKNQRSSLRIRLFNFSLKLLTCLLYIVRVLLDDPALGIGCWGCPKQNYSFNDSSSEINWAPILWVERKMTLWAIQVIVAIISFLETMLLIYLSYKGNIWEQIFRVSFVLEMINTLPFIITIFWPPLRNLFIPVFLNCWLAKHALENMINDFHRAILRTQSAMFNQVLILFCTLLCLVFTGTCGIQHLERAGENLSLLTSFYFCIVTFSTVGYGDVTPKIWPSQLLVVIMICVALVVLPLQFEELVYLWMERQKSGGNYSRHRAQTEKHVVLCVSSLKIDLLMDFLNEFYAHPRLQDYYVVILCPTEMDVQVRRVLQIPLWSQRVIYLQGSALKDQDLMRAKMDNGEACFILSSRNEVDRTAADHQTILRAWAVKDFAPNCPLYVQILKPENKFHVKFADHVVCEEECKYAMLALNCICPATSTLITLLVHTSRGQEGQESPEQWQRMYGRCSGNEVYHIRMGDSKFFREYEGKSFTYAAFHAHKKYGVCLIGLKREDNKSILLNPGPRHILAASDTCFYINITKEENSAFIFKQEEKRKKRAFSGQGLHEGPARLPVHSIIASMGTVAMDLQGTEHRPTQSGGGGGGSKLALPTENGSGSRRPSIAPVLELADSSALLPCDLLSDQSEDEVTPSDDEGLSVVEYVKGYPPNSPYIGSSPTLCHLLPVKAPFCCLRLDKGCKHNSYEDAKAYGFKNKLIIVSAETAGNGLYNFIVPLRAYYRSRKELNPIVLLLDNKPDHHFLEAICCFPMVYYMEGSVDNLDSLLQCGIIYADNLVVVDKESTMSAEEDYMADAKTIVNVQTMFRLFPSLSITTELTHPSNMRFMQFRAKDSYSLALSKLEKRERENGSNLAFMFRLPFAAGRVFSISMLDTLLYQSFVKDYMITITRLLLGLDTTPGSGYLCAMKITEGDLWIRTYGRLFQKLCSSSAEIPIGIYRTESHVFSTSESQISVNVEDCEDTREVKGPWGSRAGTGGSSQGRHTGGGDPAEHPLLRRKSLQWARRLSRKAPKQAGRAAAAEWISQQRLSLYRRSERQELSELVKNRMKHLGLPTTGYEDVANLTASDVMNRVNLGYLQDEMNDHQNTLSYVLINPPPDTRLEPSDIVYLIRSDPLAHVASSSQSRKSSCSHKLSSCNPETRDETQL
T1 sequence (Q5JUK3 2-1230 Y796H limits assumed): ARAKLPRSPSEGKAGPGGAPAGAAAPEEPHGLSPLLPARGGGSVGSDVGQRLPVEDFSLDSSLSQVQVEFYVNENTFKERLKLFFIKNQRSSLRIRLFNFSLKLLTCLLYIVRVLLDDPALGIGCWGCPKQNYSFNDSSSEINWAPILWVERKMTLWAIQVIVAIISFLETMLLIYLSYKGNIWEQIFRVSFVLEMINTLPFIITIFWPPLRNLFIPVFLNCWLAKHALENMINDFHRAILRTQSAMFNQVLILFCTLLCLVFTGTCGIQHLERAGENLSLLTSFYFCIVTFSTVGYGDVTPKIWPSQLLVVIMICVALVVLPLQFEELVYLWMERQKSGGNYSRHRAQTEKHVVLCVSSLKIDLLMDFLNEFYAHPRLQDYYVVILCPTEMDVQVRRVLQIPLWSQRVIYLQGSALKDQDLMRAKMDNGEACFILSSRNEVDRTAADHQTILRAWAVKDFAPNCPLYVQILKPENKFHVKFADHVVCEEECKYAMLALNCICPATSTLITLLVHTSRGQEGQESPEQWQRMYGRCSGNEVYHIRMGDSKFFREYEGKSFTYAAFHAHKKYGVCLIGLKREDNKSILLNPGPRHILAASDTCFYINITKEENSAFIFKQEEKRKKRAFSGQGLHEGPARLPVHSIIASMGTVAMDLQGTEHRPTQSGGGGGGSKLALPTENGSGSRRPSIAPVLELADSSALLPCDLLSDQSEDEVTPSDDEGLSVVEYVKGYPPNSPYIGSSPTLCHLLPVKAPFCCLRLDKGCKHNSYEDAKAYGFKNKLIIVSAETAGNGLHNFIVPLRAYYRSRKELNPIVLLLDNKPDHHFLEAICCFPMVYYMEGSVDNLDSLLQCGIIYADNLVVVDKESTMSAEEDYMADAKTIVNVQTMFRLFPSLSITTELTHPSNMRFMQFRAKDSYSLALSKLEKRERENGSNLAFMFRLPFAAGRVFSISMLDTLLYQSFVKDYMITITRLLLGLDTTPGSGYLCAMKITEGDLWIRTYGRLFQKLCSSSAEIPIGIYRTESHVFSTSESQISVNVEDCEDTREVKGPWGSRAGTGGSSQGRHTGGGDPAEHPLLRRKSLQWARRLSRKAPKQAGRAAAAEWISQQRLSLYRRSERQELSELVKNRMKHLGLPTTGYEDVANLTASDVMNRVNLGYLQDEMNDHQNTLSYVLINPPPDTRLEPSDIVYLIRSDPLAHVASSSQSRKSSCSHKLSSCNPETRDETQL
Test: Whole-cell patch clamp of WT/Y796H KCNT1 channels expressed in CHO cells
Type: cell-based
Excerpt: To replicate the heterozygous nature of KCNT1‐associated disorders and obtain channels comprising wild‐type (WT) and mutated subunits, a concatemeric approach was taken. To generate human KCNT1 concatemers, plasmids termed donor and recipient were generated from the pcDNA6‐KCNT1 construct used previously[16] and empty pcDNA6 V5/His6 vector (Invitrogen) using standard polymerase chain reaction (PCR) and cloning techniques. The insert of the donor construct comprised the KCNT1 coding sequence that lacked a start codon and preceded by bases encoding a […] linker. […] The recipient construct was generated by deleting the stop codon and introducing a unique XhoI site. Sequences containing disease mutation Y796H were subcloned into these constructs from a plasmid used previously.[16] All sequences generated by PCR were confirmed by Sanger sequencing (Genewiz, Takeley, UK). Finally, the concatemeric construct was generated by subcloning the XhoI/AgeI fragment from the donor plasmid, containing the in‐frame linker and complete subunit sequence into the same sites in the recipient plasmid. Recombination‐deficient competent Escherichia coli (E. coli) cells and 32°C incubation temperature were used to reduce the frequency of deletions between identical sequences in the plasmid, which was confirmed by restriction analysis. For other experiments, constructs with WT, G288S, R398Q, or R928C mutant forms of KCNT1 cDNA, tagged with YFP‐6His in the pCMV‐entry vectors, were described previously.[10]
The CHO cells were cultured in Dulbecco's modified Eagle's Medium (ThermoFisher, UK) supplemented with 10% (v/v) fetal bovine serum, 50 U/ml penicillin and 0.05 mg/ml streptomycin, and incubated at 37°C in 5% CO2 atmosphere. For whole cell recording of WT/Y796H KCNT1, CHO cells were transiently co‐transfected with concatemeric WT/Y796H and EYFP, as described previously.[29] For electrophysiological experiments, cells were plated onto borosilicate glass cover slips and used 2 to 4 days later. Human embryonic kidney 293T cells (HEK293T) were cultured in the same manner, but with medium supplemented with 2 mM L‐glutamine, and 1% (v/v) nonessential amino acids. For excised inside‐out recording of homomeric WT or mutant YFP‐tagged KCNT1, HEK293T cells plated on glass cover slips were transfected using Attractene Transfection Reagent (Qiagen, Germany) according to the manufacturer's instructions and used 2 to 3 days later.
Whole cell recordings from transiently transfected CHO cells were conducted at room temperature and analyzed as described previously.[29] The pipette (intracellular) solution contained, in mM, 100 K‐gluconate, 30 KCl, 10 Na‐gluconate, 29 glucose, 5 EGTA, and 10 HEPES, adjusted to pH 7.3 with KOH and the bath (extracellular) solution contained, in mM, 140 NaCl, 1 CaCl2, 5 KCl, 29 glucose, 10 HEPES, and 1 MgCl2, adjusted to pH 7.4 with NaOH. For current‐voltage and conductance‐voltage analysis of the concatemeric constructs, cells were held at −80 mV and 400 ms pulses were applied to voltages between −100 and 80 mV. Conductance values (G) with each voltage pulse (V) were obtained by dividing the peak steady‐state current by the driving force (command voltage minus the measured reversal potential). Conductance‐voltage data were fit by a Boltzmann function, G = (G max – G min)/(1 + e^(V‐V½)/k)) + G min, where G max and G min are the maximum and minimum conductance values, V ½ the half‐maximal activation voltage, and slope k. The liquid junction potential was calculated and was used to correct voltage values after data collection. Inhibition by drugs, which were obtained from commercial sources, was determined from currents evoked by 500 ms voltage ramps from −100 to 0 mV at 0.2 hertz (Hz) as described previously.[16] Initially, the drugs (10 mM in DMSO) were diluted to 10 μM in a bath solution and applied via gravity perfusion for 2 minutes, followed by at least a 2‐minute wash with drug‐free solution prior to addition of the next drug. […]

[1] = whole-cell patch clamp, CHO cells
[2] = whole-cell patch clamp, CHO cells, concentration-inhibition analysis, read-out: mean ± SEM IC50

Row | SMILES | IC50 [µM] | inhibition of WT/Y796H KCNT1 channels at 10 μM [1] | potency of concentration-dependent inhibition (in words) [1] | IC50 [2] [µM]
1 | O=C(OCCN1CCN(c2cccc(C(F)(F)F)c2)CC1)c1ccccc1Nc1ccnc2cc(C(F)(F)F)ccc12 [antrafenine] | 1.3 ± 0.2 | inhibited |  | 
2 | CCOc1nc2cccc(C(=O)OC(C)OC(=O)OC3CCCCC3)c2n1Cc1ccc(-c2ccccc2-c2nn[nH]n2)cc1 (stereo not shown) [Candesartan cilexetil, candesartan cilexetil] |  |  | much less potent | 
3 | CC(C)N1CCN(c2ccc(OCC3COC(Cn4cncn4)(c4ccc(Cl)cc4Cl)O3)cc2)CC1 (stereo not shown) [terconazole] |  | did not exhibit inhibition |  | 
4 | CC(C)c1c(C(=O)Nc2ccccc2)c(-c2ccccc2)c(-c2ccc(F)cc2)n1CC[C@@H](O)C[C@@H](O)CC(=O)O [atorvastatin] |  | inhibited |  | 7.54 ± 0.99
5 | CS(=O)(=O)c1cccc(C[C@H](NC(=O)c2c(Cl)cc3c(c2Cl)CCN(C(=O)c2ccc4ccoc4c2)C3)C(=O)O)c1 [lifitegrast] |  | did not exhibit inhibition |  | 
6 | CC(C)(C)NC(=O)[C@@H]1CN(Cc2cccnc2)CCN1C[C@@H](O)C[C@@H](Cc1ccccc1)C(=O)N[C@H]1c2ccccc2C[C@H]1O [indinavir] |  | did not exhibit inhibition |  | 
7 | Cc1c(O)cccc1C(=O)N[C@@H](CSc1ccccc1)[C@H](O)CN1C[C@H]2CCCC[C@H]2C[C@H]1C(=O)NC(C)(C)C [nelfinavir mesylate] |  | inhibited |  | 2.86 ± 0.3
8 | CNC(=O)c1cc(Oc2ccc(NC(=O)Nc3ccc(Cl)c(C(F)(F)F)c3)c(F)c2)ccn1 [regorafenib] |  | inhibited |  | 10.3 ± 1.25
9 | CC(C)[C@@H](C)/C=C/[C@@H](C)[C@H]1CC[C@H]2/C(=C/C=C3\C[C@@H](O)CC[C@@H]3C)CCC[C@]12C [dihydrotachysterol] |  | did not exhibit inhibition |  | 
